Reference: patent US12134785B2, “Differentiation of pluripotent stem cells to form renal organoids” (The University of Queensland, priority 2014, dated 2024)

Experiments:
[1] = test system: human iPSC line CRL1502 (clone#C32); assay: RA signaling control of A-P fate patterning of the IM (RA or AGN193109 with FGF9, monolayer differentiation, immunofluorescence); format: cell-based; conditions: day 18
Protocol: (§1) All experiments presented used the previously described wildtype human iPSC line CRL1502 (clone#C32) generated using episomal reprogramming^28. Undifferentiated human iPSCs were maintained on the mouse embryonic fibroblasts (MEFs) (Millipore) as a feeder layer with human ES cell (hES) medium as described previously^1. Cells were authenticated and tested for the mycoplasma infection^28. Human iPSCs were plated on a Matrigel-coated (Millipore) culture dish and cultured in MEF-conditioned hES medium (MEF-CM) until reaching to 60-100% confluent. Then, cells were again plated on a Matrigel-coated at 5,000 cells/cm^2 in MEF-CM. Next day, cells reached to 40-50% of confluent, cells were treated with 8 μM of CHIR99021 in APEL basal medium ([…] Technologies) supplemented with Antibiotic-Antimycotic (Life Technologies) for 2-5 days, followed by FGF9 (200 ng mL^−1) and Heparin (1 μg mL^−1) for another […], with changing medium every second day. At day 7, cells were collected and dissociated into single cells using Trypsin or TrypLE select (Life Technologies). Cells (0.5×10^6) were spun down at ×400 g for 2 min to form a pellet and then transferred onto a Transwell 0.4 μm pore polyester membrane (#CLS3450 Corning). Pellets were treated with 5 μM of CHIR99021 in APEL for 1 h, and then cultured with FGF9 (200 ng mL^−1) and Heparin (1 μg mL^−1) for 5 days, followed by another 6-13 days in APEL basal medium, with changing medium three times a week. Culture medium should not exceed above a membrane. For the differentiation in monolayer cultures, cells post CHIR99021 induction were treated by FGF9 (200 ng mL^−1) and Heparin (1 μg mL^−1) for 10 days, followed by APEL basal medium for another 6 days. In some experiments, RA (0.1 μM) or AGN193109 (5 μM) were added to FGF9 medium. A step-by step protocol describing kidney organoid generation was provided in Example 1.
For monolayer cells, antibody staining was performed as described previously^1. For the kidney organoid, organoids were fixed with 2% paraformaldehyde in PBS for 20 min at 4° C. followed by 3 times wash with PBS. […]

IM cells = assay: Preliminary data on differentiation of IM cells at different RA / AGN193109 concentrations; format: cell-based; conditions: higher concentrations of AGN193109
[2] = test system: human iPSC line CRL1502 (clone#C32); assay: Duration of initial Wnt signaling (CHIR99021) prior to FGF9: AI/PI markers by qPCR and immunofluorescence; format: cell-based
Protocol: as §1
For monolayer cells, antibody staining was performed as described previously^1. For the kidney organoid, organoids were fixed with 2% paraformaldehyde in PBS for 20 min at 4° C. followed by 3 times wash with PBS. Then organoids were blocked with 10% donkey serum, 0.3% Triton X/PBS for 2-3 h at room temperature and incubated with primary antibodies overnight at 4° C. After 5 times washing with 0.1% Triton X/PBS. secondary antibodies were incubated for 4 h at room temperature. The following antibodies and dilutions were used: rabbit anti-PAX2 (1:300, #71-6,000, Zymed Laboratories), goat anti-SIX1 (1:300, #sc-9709, Santa Cruz Biotechnology), rabbit anti-SIX2 (1:300, #11562-1-AP, Proteintech), mouse anti-ECAD (1:300, #610181. BD Biosciences), rabbit anti-WT1 (1:100, #sc-192, Santa Cruz Biotechnology), mouse anti-HOXD11 (1:300, #SAB1403944, Sigma-Aldrich), goat anti-GATA3 (1:300, AF2605, R&D Systems). rabbit anti-JAG1 (1:300, #ab7771, Abcam), goat anti-Cubilin (1:150, #sc-20607. Santa Cruz Biotechnology), sheep anti-NPHS1 (1:300, AF4269, R&D Systems), LTL-biotin-conjugated (1:300, B-1325, Vector Laboratories), DBA-biotin-conjugated (1:300, B-1035, Vector Laboratories), mouse anti-KRT8 (1:300, #TROMA, DSHB), mouse anti-CD31 (1:300, #555444, BD Pharmingen), rabbit anti-KDR (1:300, #2479, Cell Signaling Technology), goat anti-SOX17 (1:300, #AF1924, R&D Systems), rabbit anti-NG2 (1:300, #AB5320, Merck Millipore), rabbit anti-SMA (1:300, #ab15267. Abcam), mouse anti-PDGFRA (1:200, #556001. BD Pharmingen), rabbit anti-Laminin (1:300, #L9393, Sigma-Aldrich), rabbit anti-UMOD (1:300, #BT-590, Biomedical Technologies), mouse anti-MEIS1 (1:300, #ATM39795, activemotif), goat anti-FOXD1 (1:200, #sc-47585, Santa Cruz Biotechnology) and rabbit anti-cleaved-CASP3 (1:300, #9661, Cell Signaling Technology). Images were taken using a Nikon Ti-U microscope or a Zeiss LSM 780 confocal microscope. All immunofluorescence analyses were successfully repeated more than three times and representative images are shown. […]

kidney organoids = assay: Regulation of nephrogenesis in the kidney organoid (CHIR99021 pulse, FGF9); format: cell-based, human
Protocol: as §1, with “Pellets were treated with 5 μM of CHIR99021 in APEL for 1 h, and then cultured with FGF9 (200 ng mL^−1) and Heparin (1 μg mL^−1) for 5 days, followed by another 6-13 days in APEL basal medium, with changing medium three times a week.” left out

[3] = longer duration of CHIR99021, day 7
[4] = shorter duration of CHIR99021, day 7

SMILES	AI specification of early migrating cells ([1]; 3 days CHIR99021 followed by FGF9 + AGN)	induction of the MM lineage ([1]; AGN193109 (5 μM) with FGF9 after CHIR99021, monolayer)	UE induction (GATA3+PAX2+ECAD+) ([1]; RA (0.1 μM) or AGN193109 (5 μM) with FGF9 after CHIR99021, monolayer)	proportion of metanephric mesenchyme cells (IM cells)	UE induction (GATA3+PAX2+ECAD+) ([2]; fewer days in CHIR, after 18 days of culture)	induction of UE and MM in monolayer culture ([2]; initial 4 days of CHIR99021)	expression of the PSM markers TBX6 and T (qPCR) ([2]; longer days in CHIR99021)	induction of MM (PAX2+ECAD−) and its derivatives (PAX2+ECAD+) ([2]; longer days in CHIR, after 18 days of culture)	PI markers HOXD11 and EYA1 (qPCR) ([2]; longer days of 8 μM CHIR99021, day 7)	AI (GATA3) by immunofluorescence [2, 3]	PI (HOXD11) by immunofluorescence [2, 3]	AI (GATA3) by immunofluorescence [2, 4]	PI (HOXD11) by immunofluorescence [2, 4]	AI markers LHX1 and GATA3 (qPCR) ([2]; shorter period of 8 μM CHIR99021, day 7)	nephrogenesis in organoids (kidney organoids; 5 μM CHIR99021 for 1 h immediately post aggregation vs no pulse)	formation of aggregates (kidney organoids; 45 minute pulse of high CHIR (5 μM) immediately upon reaggregation)	maximal nephron number per organoid (kidney organoids; pulse of CHIR99021 for one hour after forming a pellet)
Cc1ccc(C2=CCC(C)(C)c3ccc(C#Cc4ccc(C(=O)O)cc4)cc32)cc1 [AGN193109]	inhibited	enhanced	inhibited	relative increase	–	–	–	–	–	–	–	–	–	–	–	–	–
Cc1c[nH]c(-c2cnc(NCCNc3ccc(C#N)cn3)nc2-c2ccc(Cl)cc2Cl)n1 [CHIR99021]	–	–	–	–	dominant UE induction	induction of both the UE and MM	Prolonged expression	preferential induction of MM	increased	less	more	more	less	induced	promoted nephrogenesis	enhanced	required
